Experimental data as given in patent US9969766B2, “20(R)-ginsenoside Rg3 polyacylated derivatives, preparation and application thereof” (priority 2014, dated 2018).
Where two headings read alike, the source gives them in different places.

Experiments:
[1] = test system: human stomach cancer MGC cells; assay: Human stomach cancer MGC in-situ inoculation, survival; settings: for Animal body weight (g) Start / Animal body weight (g) end / Average survival (d) X ± SD / Life extension rate T/C × %: po × 14bid
Description: (§1) human breast cancer Bcap-37 model, human lung cancer A549 model, human intestinal cancer LOVO model, human stomach cancer MGC model and human liver cancer QGY model, with tumor cell lines being of the second generation or more, mouse B16 melanoma cell line, mouse Lewis lung cancer model, mouse sarcoma s180 model, all passaged and preserved in Pharmacological Division of Shanghai Institute of Pharmaceutical Industry. 3. Experiment Animals Origins: nude mice, 6-week old, 18-22 g/mouse, provided by Laboratory Animal Center of Chinese Academy of Sciences, Shanghai Branch, with certification No. 2001A032. C57BL/6 mice and Kunming mice, 18-22 g/mouse, provided by Laboratory Animal Center of Chinese Academy of Sciences, Shanghai Branch, with certification SYXK (Shanghai) 2004-0015. Gender: male or female, the same gender for each batch in experiment Animal numbers: 10 mice and 10 nude mice for each of positive control group and test group in experiment, and 20 for negative control group. 4. Experiment Design Dose Settings: doses for 20(R)-ginsenoside Rg3 octo-acetate, 20(R)-ginsenoside Rg3 octo-n-butyrate and 20(R)-ginsenoside Rg3 octo-n-propionate were set as high-dose group (0.3 mg/kg/d), medium-dose group (0.06 mg/kg/d), and low-dose group (0.012 mg/kg/d). Dosage regimen: oral administration, twice daily. human tumor model and cell-inoculated mouse model: po×14 bid; mouse tumor-inoculated model: po×10 bid. Control Trial: negative control group: given with the same volume of 5% CMC-Na as the test group, and the same dosage regimen as the test group. positive control group: Cyclophosphamide CTX 30 mg/kg, MMC 2 mg/kg and 5Fu 30 mg/kg by intraperitoneal or intravenous administration, once daily, for seven consecutive days. 5. Experiment Method and Key Steps 5.1 Anti-Tumor Test 5.1.1 Subcutaneous Inoculation Model

mouse Lewis lung cancer = assay: Mouse Lewis lung cancer, toe subcutaneous inoculation, anti-tumor test; settings: po × 14bid
Description: as §1, with “MMC 2 mg/kg and 5Fu 30 mg/kg by intraperitoneal or intravenous administration, once daily, for seven consecutive days.” left out
Tumor cells of vigorous growth stage were taken under sterile condition and made into cell suspensions of about 1-2×10^7/ml by homogenization, the suspensions were inoculated subcutaneously at 0.2 ml/mouse in host mice and repeated on the next day according to the experiment design, the animals in each group were slaughtered after about three weeks, the tumors were collected and weighed, and the tumor inhibition rates were calculated according to the following equation: tumor inhibition rate %=[(average tumor weight of control group-average tumor weight of treatment group)/average tumor weight of control group]×100%

mouse melanoma B16 cells = assay: Mouse melanoma B16 tail vein inoculation, lung metastasis; settings: po × 14bid
Description: as §1

[2] = test system: human lung cancer A549 cells; assay: Human lung cancer A549 (subcutaneous inoculation) metastasis model; settings: po × 14bid
[3] = test system: human intestinal cancer LOVO cells; settings: po × 14bid
Description: as §1, with “MMC 2 mg/kg and 5Fu 30 mg/kg by intraperitoneal or intravenous administration, once daily, for seven consecutive days.” left out
LOVO intestinal cancer cells (cultured in vitro) of logarithmic growth stage were taken under sterile condition and prepared into cell suspensions of about 1.8×10^7/ml using RPMI1640 culture medium as diluent. The nude mice were subjected to general anesthesia and cut in belly after routine disinfection to belly skin, the spleens were taken out and inoculated with LOVO intestinal cancer cell suspensions (0.05 ml/mouse) and then restored, the incisions were sutured, and the mice were placed in the cages and then put in the laminar flow rack.

[4] = Solubility of the isolated products; format: physicochemical

CC(=O)OC[C@H]1O[C@@H](OC2CC[C@]3(C)C(CC[C@@]4(C)C3C[C@H](OC(C)=O)C3C([C@@](C)(O)CCC=C(C)C)CC[C@@]34C)C2(C)C)[C@H](OC2O[C@H](COC(C)=O)[C@@H](OC(C)=O)[C@H](OC(C)=O)[C@H]2OC(C)=O)[C@@H](OC(C)=O)[C@@H]1OC(C)=O (stereo partly drawn) [Rg3-octo-acetate, 20 (R)-ginsenoside Rg3 octaacetate]
Animal body weight (g) Start ([1]; 0.012 mg/kg/d): 19.8 g
Animal body weight (g) end ([1]; 0.012 mg/kg/d): 25.4 g
Average survival (d) X ± SD ([1]; 0.012 mg/kg/d): 38.84 ± 0.14 days
Life extension rate T/C × % ([1]; 0.012 mg/kg/d): 170.56%
Animal body weight (g) Start ([1]; 0.06 mg/kg/d): 19.6 g
Animal body weight (g) end ([1]; 0.06 mg/kg/d): 24.6 g
Average survival (d) X ± SD ([1]; 0.06 mg/kg/d): 41.21 ± 0.11 days
Life extension rate T/C × % ([1]; 0.06 mg/kg/d): 180.98%
Animal body weight (g) Start ([1]; 0.3 mg/kg/d): 19.7 g
Animal body weight (g) end ([1]; 0.3 mg/kg/d): 24.1 g
Average survival (d) X ± SD ([1]; 0.3 mg/kg/d): 46.04 ± 0.12 days
Life extension rate T/C × % ([1]; 0.3 mg/kg/d): 202.19%
life-prolonging effect versus positive control group ([1]; high-dose groups, summary of Table 7-9: human stomach, intestinal and liver cancer): better than the positive control group
Tumor inhibition rate % (mouse Lewis lung cancer; 0.012 mg/kg/d): 50.15%
Tumor-bearing toe weight (g) X ± SD (mouse Lewis lung cancer; 0.012 mg/kg/d): 0.444 ± 0.09 g
Tumor inhibition rate % (mouse Lewis lung cancer; 0.06 mg/kg/d): 58.89%
Tumor-bearing toe weight (g) X ± SD (mouse Lewis lung cancer; 0.06 mg/kg/d): 0.366 ± 0.09 g
Tumor inhibition rate % (mouse Lewis lung cancer; 0.3 mg/kg/d): 71.09%
Tumor-bearing toe weight (g) X ± SD (mouse Lewis lung cancer; 0.3 mg/kg/d): 0.633 ± 0.08 g
Anti-metastasis rate % (mouse melanoma B16 cells; 0.012 mg/kg/d): 50.90%
Lung clone numbers (mice) X ± SD (mouse melanoma B16 cells; 0.012 mg/kg/d): 23.62 ± 7.0
Anti-metastasis rate % (mouse melanoma B16 cells; 0.06 mg/kg/d): 63.87%
Lung clone numbers (mice) X ± SD (mouse melanoma B16 cells; 0.06 mg/kg/d): 17.38 ± 7.1
Anti-metastasis rate % (mouse melanoma B16 cells; 0.3 mg/kg/d): 79.98%
Lung clone numbers (mice) X ± SD (mouse melanoma B16 cells; 0.3 mg/kg/d): 9.63 ± 7.9
Anti-metastasis rate % ([2]; 0.012 mg/kg/d): 49.91%
Lung clone numbers (mice) X ± SD ([2]; 0.012 mg/kg/d): 0.96 ± 0.12
Anti-metastasis rate % ([2]; 0.06 mg/kg/d): 57.90%
Lung clone numbers (mice) X ± SD ([2]; 0.06 mg/kg/d): 0.81 ± 0.15
Anti-metastasis rate % ([2]; 0.3 mg/kg/d): 68.52%
Lung clone numbers (mice) X ± SD ([2]; 0.3 mg/kg/d): 0.84 ± 0.13
Average survival (d) X ± SD ([3]; 0.012 mg/kg/d): 24.59 ± 4.5 days
Life extension rate T/C × % ([3]; 0.012 mg/kg/d): 179.99%
Average survival (d) X ± SD ([3]; 0.06 mg/kg/d): 25.80 ± 4.8 days
Life extension rate T/C × % ([3]; 0.06 mg/kg/d): 188.90%
Average survival (d) X ± SD ([3]; 0.3 mg/kg/d): 31.50 ± 5.1 days
Life extension rate T/C × % ([3]; 0.3 mg/kg/d): 230.59%
Solubility in ethanol ([4]; ethanol): soluble
Solubility in water ([4]; water): soluble
